The text below walks through data of patent US11725010B2, “Polyheterocyclic compounds as METTL3 inhibitors” (Storm Therapeutics Limited, priority 2019, dated 2023).

One test has as its system KASUMI-1 cells. In words: Kasumi cell assay (CellTiter-Glo cell growth). Format: cell-based. The conditions noted are these: Homo sapiens, Kasumi 1; treated for 120 hours, CellTiter-Glo luminescence; read-out: KASUMI1 cells IC50. As for the experimental part: Upon treatment, Kasumil cells were incubated for 10 min at RT with the CellTiter-Glo reagent (G7571, Promega). Measurement of the luminescence signal was performed on a microplate reader (Ensight, PerkinElmer).

The next test deals with Caov-3 cells. In words: Caov3 CTG proliferation assay. Format: cell-based. The conditions noted are these: Homo sapiens, Caov-3; treated for 120 hours, CellTiter-Glo luminescence; read-out: Caov3 cells IC50. How it is done: CTG Assay (Caov3 Cell Line)
Upon treatment, Coav-3 cells were incubated for 10 min at RT with the CellTiter-Glo reagent (G7571, Promega). Measurement of the luminescence signal was performed on a microplate reader (Ensight, PerkinElmer).
Caov3 CTG Assay—Proliferation Assay

A further test concerns the target METTL3/14 (Homo sapiens (Human), UniProt Q86U44).

Bounds are passed on as bounds.

METTL3/14, sequence (Q86U44 whole entry): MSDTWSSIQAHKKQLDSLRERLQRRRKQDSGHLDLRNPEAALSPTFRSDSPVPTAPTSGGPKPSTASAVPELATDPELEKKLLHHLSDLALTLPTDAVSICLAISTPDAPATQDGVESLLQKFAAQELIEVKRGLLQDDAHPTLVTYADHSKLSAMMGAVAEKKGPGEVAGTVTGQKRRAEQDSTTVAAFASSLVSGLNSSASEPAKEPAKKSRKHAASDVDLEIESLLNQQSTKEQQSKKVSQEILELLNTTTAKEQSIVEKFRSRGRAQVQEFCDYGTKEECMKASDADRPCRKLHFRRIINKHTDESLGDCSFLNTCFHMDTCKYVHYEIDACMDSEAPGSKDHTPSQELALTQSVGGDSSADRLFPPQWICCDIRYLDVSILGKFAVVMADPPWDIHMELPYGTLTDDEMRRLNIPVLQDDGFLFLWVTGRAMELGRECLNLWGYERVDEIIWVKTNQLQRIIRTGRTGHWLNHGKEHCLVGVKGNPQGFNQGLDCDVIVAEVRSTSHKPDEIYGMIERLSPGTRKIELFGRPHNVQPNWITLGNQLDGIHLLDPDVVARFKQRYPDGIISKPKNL
METTL3/14, sequence (Q9HCE5 whole entry partner): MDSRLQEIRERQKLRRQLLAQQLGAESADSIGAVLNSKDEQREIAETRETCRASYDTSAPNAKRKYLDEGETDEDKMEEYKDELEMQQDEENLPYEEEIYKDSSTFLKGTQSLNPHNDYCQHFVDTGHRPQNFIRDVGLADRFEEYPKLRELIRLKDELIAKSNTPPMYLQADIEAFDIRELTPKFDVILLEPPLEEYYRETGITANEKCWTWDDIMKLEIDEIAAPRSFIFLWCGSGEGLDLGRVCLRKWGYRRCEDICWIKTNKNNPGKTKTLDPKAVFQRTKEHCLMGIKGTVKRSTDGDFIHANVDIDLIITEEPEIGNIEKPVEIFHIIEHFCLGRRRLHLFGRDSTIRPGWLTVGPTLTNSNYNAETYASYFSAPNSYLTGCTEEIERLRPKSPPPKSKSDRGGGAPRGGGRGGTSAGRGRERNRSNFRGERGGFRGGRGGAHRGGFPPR

`O=C(NCc1ccc2cc(CN3CC4(C3)CC(F)(F)C4)[nH]c2c1)c1cc(=O)n2ccccc2n1` [Compound 94, N-{[2-({6,6-difluoro-2-azaspiro[3.3]heptanean-2-yl}methyl)-1H-indol-6-yl]methyl}-4-oxo-4H-pyrido[1,2-a]pyrimidine-2-carboxamide]: the 50% inhibitory concentration (IC50) with KASUMI-1 cells came out at 2240 nM; in the test with Caov-3 cells, 681 nM; against METTL3/14, 6.1 nM.
Taken in the same sequence, the figures for `O=C(NCc1ccc2cc(CN3CC(C4CCC4)C3)[nH]c2c1)c1cc(=O)n2ccccc2n1` [Compound 95, N-({2-[(3-cyclobutylazetidin-1-yl)methyl]-1H-indol-6-yl}methyl)-4-oxo-4H-pyrido[1,2-a]pyrimidine-2-carboxamide] were 3190 nM, 960 nM and 6.1 nM.
Taken in the same sequence, the figures for `CCC1(CC)CN(Cc2cc3ccc(CNC(=O)c4cc(=O)n5ccccc5n4)cc3[nH]2)C1` [Compound 102, N-({2-[(3,3-diethylazetidin-1-yl)methyl]-1H-indol-6-yl}methyl)-4-oxo-4H-pyrido[1,2-a]pyrimidine-2-carboxamide] were 525 nM, 230 nM and 6.1 nM.
Take `O=C(NCc1ccc2cc(CN3CCC4(CCC4)C3)[nH]c2c1)c1cc(=O)n2ccccc2n1` [Compound 104, N-{[2-({6-azaspiro[3.4]octan-6-yl}methyl)-1H-indol-6-yl]methyl}-4-oxo-4H-pyrido[1,2-a]pyrimidine-2-carboxamide]: the IC50 with KASUMI-1 cells came out at 661 nM; in the test on Caov-3 cells, 237 nM; against METTL3/14, 6.1 nM.
In the same order, the values of `O=C(NCc1ccc2cc(CN3CC4CCCC4C3)[nH]c2c1)c1cc(=O)n2ccccc2n1` (stereo not drawn) [Compound 106, N-{[2-({octahydrocyclopenta[c]pyrrol-2-yl}methyl)-1H-indol-6-yl]methyl}-4-oxo-4H-pyrido[1,2-a]pyrimidine-2-carboxamide] are 1830 nM, 911 nM and 6.1 nM.
In the same order, the values of `O=C(NCc1ccc2cc(CNCC3CC34CC4)[nH]c2c1)c1cc(=O)n2ccccc2n1` (stereo not drawn) [Compound 109, 4-oxo-N-[(2-{[({spiro[2.2]pentan-1-yl}methyl)amino]methyl}-1H-indol-6-yl)methyl]-4H-pyrido[1,2-a]pyrimidine-2-carboxamide] are 1470 nM, 608 nM and 6.1 nM.
For the compound `O=C(NCc1ccc2cc(CNC3CC34CCC4)[nH]c2c1)c1cc(=O)n2ccccc2n1` (stereo not drawn) [Compound 110, 4-oxo-N-({2-[({spiro[2.3]hexan-1-yl}amino)methyl]-1H-indol-6-yl}methyl)-4H-pyrido[1,2-a]pyrimidine-2-carboxamide], the IC50 with KASUMI-1 cells turned out to be 1140 nM; in the test on Caov-3 cells it was 412 nM; on METTL3/14, 6.1 nM.
In the same order, the values of `O=C(NCc1ccc2cc(CN3CCC4(CCCC4)C3)[nH]c2c1)c1cc(=O)n2ccccc2n1` [Compound 113, N-{[2-({2-azaspiro[4.4]nonan-2-yl}methyl)-1H-indol-6-yl]methyl}-4-oxo-4H-pyrido[1,2-a]pyrimidine-2-carboxamide] are 1650 nM, 575 nM and 6.1 nM.
Regarding `CC1(CNCc2cc3ccc(CNC(=O)c4cc(=O)n5ccccc5n4)cc3[nH]2)CCC1` [Compound 117, N-{[2-({[(1-methylcyclobutyl)methyl]amino}methyl)-1H-indol-6-yl]methyl}-4-oxo-4H-pyrido[1,2-a]pyrimidine-2-carboxamide], the IC50 was found to be 1730 nM in the test with KASUMI-1 cells, 502 nM in the test with Caov-3 cells and 6.1 nM against METTL3/14.
Taken in the same sequence, the figures for `CC(NCc1cc2ccc(CNC(=O)c3cc(=O)n4ccccc4n3)cc2[nH]1)C12CC(F)(C1)C2` (stereo not drawn) [Compound 120, N-[(2-{[(1-{3-fluorobicyclo[1.1.1]pentan-1-yl}ethyl)amino]methyl}-1H-indol-6-yl)methyl]-4-oxo-4H-pyrido[1,2-a]pyrimidine-2-carboxamide] were 447 nM, 203 nM and 6.1 nM.
In the same order, the values of `c1cc(-c2cn(Cc3ccc4cc(CN5CC6(CCC6)C5)[nH]c4c3)nn2)c2cn[nH]c2c1` [Compound 122, 4-(1-{[2-({2-azaspiro[3.3]heptanean-2-yl}methyl)-1H-indol-6-yl]methyl}-1H-1,2,3-triazol-4-yl)-1H-indazole] are 1100 nM, 525 nM and 6.1 nM.
In the case of `CC12CC(CNCc3cc4cnc(CNC(=O)c5cc(=O)n6ccccc6n5)cc4[nH]3)(C1)C2` [Compound 129, N-[(2-{[({3-methylbicyclo[1.1.1]pentan-1-yl}methyl)amino]methyl}-1H-pyrrolo[3,2-c]pyridin-6-yl)methyl]-4-oxo-4H-pyrido[1,2-a]pyrimidine-2-carboxamide], the 50% inhibitory concentration (IC50) turned out to be 2900 nM with KASUMI-1 cells, 699 nM with Caov-3 cells and 6.1 nM against METTL3/14.
Consider `O=C(NCc1cc2[nH]c(CNCC3CCC3)cc2cn1)c1cc(=O)n2ccccc2n1` [Compound 130, N-[(2-{[(cyclobutylmethyl)amino]methyl}-1H-pyrrolo[3,2-c]pyridin-6-yl)methyl]-4-oxo-4H-pyrido[1,2-a]pyrimidine-2-carboxamide], for which the IC50 was 3160 nM in the test on KASUMI-1 cells, 457 nM in the test with Caov-3 cells and 6.1 nM at METTL3/14.
In the same order, the values of `O=C(NCc1cc2[nH]c(CNCC34CC(C3)C4)cc2cn1)c1cc(=O)n2ccccc2n1` [Compound 131, N-[(2-{[({bicyclo[1.1.1]pentan-1-yl}methyl)amino]methyl}-1H-pyrrolo[3,2-c]pyridin-6-yl)methyl]-4-oxo-4H-pyrido[1,2-a]pyrimidine-2-carboxamide] are 1140 nM, 237 nM and 6.1 nM.
In the same order, the values of `O=C(NCc1cc2[nH]c(CNCC34CC(F)(C3)C4)cc2cn1)c1cc(=O)n2ccccc2n1` [Compound 132, N-[(2-{[({3-fluorobicyclo[1.1.1]pentan-1-yl}methyl)amino]methyl}-1H-pyrrolo[3,2-c]pyridin-6-yl)methyl]-4-oxo-4H-pyrido[1,2-a]pyrimidine-2-carboxamide] are 785 nM, 268 nM and 6.1 nM.
In the same order, the values of `O=C(NCc1cc2[nH]c(CN3CCC4(CCC4)C3)cc2cn1)c1cc(=O)n2ccccc2n1` [Compound 145, N-((2-((6-azaspiro[3.4]octan-6-yl)methyl)-1H-pyrrolo[3,2-c]pyridin-6-yl)methyl)-4-oxo-4H-pyrido[1,2-a]pyrimidine-2-carboxamide] are 717 nM, 201 nM and less than 6.1 nM.
For `O=C(NCc1ccc2cc(CNCC3CCC3)[nH]c2c1)c1cc(=O)n2ccccc2n1` [Example 2, N-[(2-{[(cyclobutylmethyl)amino]methyl}-1H-indol-6-yl)methyl]-4-oxo-4H-pyrido[1,2-a]pyrimidine-2-carboxamide], the 50% inhibitory concentration (IC50) in the test on KASUMI-1 cells was determined as 587 nM; with Caov-3 cells, 237 nM; against METTL3/14 it was 6.1 nM.
On to `O=C(NCc1ccc2c(F)c(CNCC3CCC3)[nH]c2c1)c1cc(=O)n2ccccc2n1` [Example 45, N-[(2-{[(cyclobutylmethyl)amino]methyl}-3-fluoro-1H-indol-6-yl)methyl]-4-oxo-4H-pyrido[1,2-a]pyrimidine-2-carboxamide], for which the concentration for half-maximal inhibition (IC50) in the test on KASUMI-1 cells came out at 764 nM; in the test on Caov-3 cells it was 574 nM; against METTL3/14, 6.1 nM.
In the same order, the values of `[2H]C([2H])(NCC1CCC1)c1cc2ccc(CNC(=O)c3cc(=O)n4ccccc4n3)cc2[nH]1` [Example 47, N-[[2-[(Cyclobutylmethylamino)-dideuterio-methyl]-1H-indol-6-yl]methyl]-4-oxo-pyrido[1,2-a]pyrimidine-2-carboxamide] are 344 nM, 186 nM and 6.1 nM.
Taken in the same sequence, the figures for `c1cc(-c2cn(Cc3cc4[nH]c(CNCC5CCC5)cc4cn3)nn2)c2cn[nH]c2c1` [Example 60, N-(cyclobutylmethyl)-1-[6-[[4-(1H-indazol-4-yl)triazol-1-yl]methyl]-1H-pyrrolo[3,2-c]pyridin-2-yl]methanamine] were 2180 nM, 423 nM and 6.1 nM.
Take `CC1(NCc2cc3ccc(CNC(=O)c4cc(=O)n5ccccc5n4)cc3[nH]2)CCCC1` [Example 114, N-[(2-{[(1-methylcyclopentyl)amino]methyl}-1H-indol-6-yl)methyl]-4-oxo-4H-pyrido[1,2-a]pyrimidine-2-carboxamide]: the concentration for half-maximal inhibition (IC50) amounted to 1460 nM in the test with KASUMI-1 cells, 679 nM in the test on Caov-3 cells and 6.1 nM on METTL3/14.
Turning to `FC12CC(CNCc3cc4ccc(Cn5cc(-c6cccn7cncc67)nn5)cc4[nH]3)(C1)C2` [Example 124, ({3-fluorobicyclo[1.1.1]pentan-1-yl}methyl)({6-[(4-{imidazo[1,5-a]pyridin-8-yl}-1H-1,2,3-triazol-1-yl)methyl]-1H-indol-2-yl}methyl)amine], the IC50 was determined as 662 nM with KASUMI-1 cells, 266 nM in the test on Caov-3 cells and 6.1 nM on METTL3/14.
In the same order, the values of `O=C(NCc1ccc2cc(CNCC34CC(F)(C3)C4)[nH]c2c1)c1cc(=O)n2ccsc2n1` [Example 125, N-[(2-{[({3-fluorobicyclo[1.1.1]pentan-1-yl}methyl)amino]methyl}-1H-indol-6-yl)methyl]-5-oxo-5H-[1,3]thiazolo[3,2-a]pyrimidine-7-carboxamide] are 504 nM, 212 nM and 6.1 nM.
